Patent US12077503B2, “Substituted cyclic amides and their use as herbicides” (FMC CORPORATION, priority 2015, dated 2024)

Tests used:
Type in all cases: in vivo
Kochia (Kochia scoparia) [1] = experiment: Test A preemergence
Outline: (§1)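 Visual injury scores from 0, no effect, to 100, complete control, were assigned versus untreated controls roughly 10 d after treatment in the greenhouse. Test chemicals, formulated with surfactant in a non-phytotoxic solvent, were applied to planted seeds as a preemergence soil spray or postemergence to one- to two-leaf plants 2 to 10 cm tall, in loam–sand soil.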

[2] = system: barnyardgrass (Echinochloa crus-galli); experiment: Test A preemergence
Outline: as §1

[3] = system: giant foxtail (Setaria faberii); experiment: Test A preemergence
Outline: as §1

[4] = system: pigweed (Amaranthus retroflexus); experiment: Test A preemergence
[5] = system: ragweed (common ragweed, Ambrosia elatior); experiment: Test A preemergence
Outline: as §1

[6] = system: ryegrass, Italian (Italian ryegrass, Lolium multiflorum); experiment: Test A preemergence
Outline: as §1

[7] = system: Galium (catchweed bedstraw, Galium aparine); experiment: Test A postemergence; conditions: postemergence, 0 to 100 scale (0 no effect, 100 complete control)
Outline: as §1

Kochia (Kochia scoparia) [8] = experiment: Test A postemergence; conditions: postemergence, 0 to 100 scale (0 no effect, 100 complete control)
Outline: as §1

[9] = system: barnyardgrass (Echinochloa crus-galli); experiment: Test A postemergence; conditions: postemergence, 0 to 100 scale (0 no effect, 100 complete control)
Outline: as §1

[10] = system: blackgrass (Alopecurus myosuroides); experiment: Test A postemergence; conditions: postemergence, 0 to 100 scale (0 no effect, 100 complete control)
Outline: as §1

corn (Zea mays) = experiment: Test A postemergence; conditions: postemergence, 0 to 100 scale (0 no effect, 100 complete control)
Outline: as §1

[11] = system: giant foxtail (Setaria faberii); experiment: Test A postemergence; conditions: postemergence, 0 to 100 scale (0 no effect, 100 complete control)
Outline: as §1

[12] = system: pigweed (Amaranthus retroflexus); experiment: Test A postemergence; conditions: postemergence, 0 to 100 scale (0 no effect, 100 complete control)
Outline: as §1

[13] = system: ragweed (common ragweed, Ambrosia elatior); experiment: Test A postemergence; conditions: postemergence, 0 to 100 scale (0 no effect, 100 complete control)
Outline: as §1

[14] = system: ryegrass, Italian (Italian ryegrass, Lolium multiflorum); experiment: Test A postemergence; conditions: postemergence, 0 to 100 scale (0 no effect, 100 complete control)
Outline: as §1

[15] = system: wheat (Triticum aestivum); experiment: Test A postemergence; conditions: postemergence, 0 to 100 scale (0 no effect, 100 complete control)
Outline: as §1

[16] = system: barnyardgrass (Echinochloa crus-galli); experiment: Test B flooded paddy test; conditions: Flood, 250 g ai/ha; 0 to 100 scale where 0 is no effect and 100 is complete control; 13 to 15 d
Outline: (§2)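 Compound goes directly into floodwater once pots are flooded 3 cm above soil, targeting plants at two leaves; the water depth is then held for the test duration. Plants sit 13–15 d in a greenhouse and are rated visually, 100 denoting complete control.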

[17] = system: ducksalad (Heteranthera limosa); experiment: Test B flooded paddy test; conditions: Flood, 250 g ai/ha; 0 to 100 scale where 0 is no effect and 100 is complete control; 13 to 15 d
Outline: as §2

rice (Oryra sativa) = experiment: Test B flooded paddy test; conditions: Flood, 250 g ai/ha; 0 to 100 scale where 0 is no effect and 100 is complete control; 13 to 15 d
Outline: as §2

[18] = system: sedge, umbrella (small-flower umbrella sedge, Cyperus difformis); experiment: Test B flooded paddy test; conditions: Flood, 250 g ai/ha; 0 to 100 scale where 0 is no effect and 100 is complete control; 13 to 15 d
Outline: as §2

[19] = 125 g ai/ha, Preemergence, visual injury after approximately 10 d, 0 to 100 scale where 0 is no effect and 100 is complete control
[20] = 500 g ai/ha, preemergence, 0 to 100 scale, 0 = no effect, 100 = complete control
[21] = 125 g ai/ha, visual rating after approx. 10 d
[22] = 500 g ai/ha, visual injury, approx. 10 d

CC(C)Oc1cccc(C2CN(C)C(=O)C2C(=O)Nc2cccc(F)c2F)c1 (stereo not drawn) [Compound 651]
0: Plant response rating, Kochia (Kochia (Kochia scoparia) [8]; [21]) | Plant response rating, Pigweed [12, 21] | Plant response rating, Ragweed [13, 21] | Plant response rating, Rice (rice (Oryra sativa)) | Plant response rating, Sedge, Umbrella [18]
70: Plant response rating, Kochia (Kochia (Kochia scoparia) [1]; [20]) | Plant response rating, Blackgrass [10, 22] | Plant response rating, Ryegrass, Italian [14, 22]
60: Plant response rating, Kochia (Kochia (Kochia scoparia) [1]; [19]) | Plant response rating, Galium [7, 21] | Plant response rating, Galium [7, 22] | Plant response rating, Blackgrass [10, 21] | Plant response rating, Wheat [15, 22] | Plant response rating, Barnyardgrass [16]
80: Plant response rating, Corn (corn (Zea mays); [21]) | Plant response rating, Foxtail, Giant [11, 21] | Plant response rating, Foxtail, Giant [11, 22]
40: Plant response rating, Pigweed [4, 19] | Plant response rating, Kochia (Kochia (Kochia scoparia) [8]; [22]) | Plant response rating, Wheat [15, 21]
90: Plant response rating, Barnyardgrass [2, 19] | Plant response rating, Barnyardgrass [2, 20] | Plant response rating, Foxtail, Giant [3, 19] | Plant response rating, Ragweed [5, 20] | Plant response rating, Ryegrass, Italian [6, 19] | Plant response rating, Ryegrass, Italian [6, 20] | Plant response rating, Barnyardgrass [9, 21] | Plant response rating, Barnyardgrass [9, 22] | Plant response rating, Corn (corn (Zea mays); [22])
30: Plant response rating, Pigweed [12, 22]
50: Plant response rating, Ragweed [5, 19] | Plant response rating, Ryegrass, Italian [14, 21]
20: Plant response rating, Ragweed [13, 22]
100: Plant response rating, Foxtail, Giant [3, 20] | Plant response rating, Pigweed [4, 20] | Plant response rating, Ducksalad [17]
